Experimental data: patent publication US6150393A (priority 1999, dated 2000)
Each block holds one molecule with its values, some of them ahead of it.

Tests used:
[1] = tested on: human mutated 5HT2A receptor, AP-3; assay: Receptor-mediated inositol phosphate (IP3) accumulation, AP-3; type: cell-based; conditions: for IP3 % of Control: 10 μM test compound, triplicate, control without test compound
Protocol: On day one, 1×10^7 293 cells per 150 mm plate were plated out. On day two, two reaction tubes were prepared (the proportions to follow for each tube are per plate): tube A was prepared by mixing 20 μg DNA (e.g., pCMV vector; pCMV vector AP-1 cDNA, etc.) in 1.2 ml serum free DMEM (Irvine Scientific, Irvine, Calif.); tube B was prepared by mixing 120 μl lipofectamine (Gibco BRL) in 1.2 ml serum free DMEM. Tubes A and B were then admixed by inversions (several times), followed by incubation at room temperature for 30-45 min. The admixture is referred to as the "transfection mixture". Plated 293 cells were washed with 1×PBS, followed by addition of 10 ml serum free DMEM. 2.4 ml of the transfection mixture was then added to the cells, followed by incubation for 4 hrs at 37° C./5% CO2. On day 3, cells were trypsinized and counted, followed by plating of 1×10^6 cells/well (poly D-lysine treated 12-well plates). Cells were permitted to adhere to the wells, followed by one wash with 1×PBS. Thereafter, 0.5 μCi ^3 H-inositol in 1 ml inositol-free DMEM was added per well. Protocol B.
On day 4, the cells were washed with 0.5 ml PBS and then 0.45 ml of assay medium was added containing inositol-free/serum free media, 10 μM pargyline, 10 mM lithium chloride, or 0.4 ml of assay medium and 50 ul of 10× ketanserin (ket) to a final concentration of 10 μM. The cells were then incubated for 30 minutes at 37° C. Then the cells were washed with 0.5 ml PBS and 200 ul of fresh/ice cold stop solution (1M KOH; 18 mM Na-borate; 3.8 mM EDTA) was added/well. The solution was kept on ice for 5-10 minutes or until the cells were lysed and then neutralized by 200 μl of fresh/ice cold neutralization sol. (7.5% HCL). The lysate was then transferred into 1.5 ml microcentrifuge tubes and 1 ml of chloroform/methanol (1:2) was added/tube. The solution was vortexed for 15 seconds and the upper phase was applied to a Biorad AG1-X8 anion exchange resin (100-200 mesh). The resin was washed with water and 0.9 ml of the upper phase was loaded onto the column. The column was washed with 10 mls of 5 mM myo-inositol and 10 ml of 5 mM Na-borate/60 mM Na-formate. The inositol trisphosphates were eluted into scintillation vials containing 10 ml of scintillation cocktail with 2 ml of 0.1 M formic acid/1 M ammonium formate. The columns were regenerated by washing with 10 ml of 0.1 M formic acid/3M ammonium formate and rinsed twice with dd H2 O and stored at room temperature in water.
Candidate compound identified in the assays of Examples 9a-9c were then evaluated for inositol phosphate accumulation, following the protocol of Example 5 ([…] expressing human mutated 5HT2A receptor, AP-3), modified as follows: tube A was prepared by mixing 16 μg DNA (e.g., pCMV vector; pCMV vector AP-1 cDNA, etc.) in 1.0 ml serum free DMEM (Irvine Scientific, Irvine, Calif.); tube B was prepared by mixing 60 μl lipofectamine (Gibco BRL) in 1.0 ml serum free DMEM. Tubes A and B were then admixed by inversions (several times), followed by incubation at room temperature for 30 min. The admixture is referred to as the "transfection mixture". Plated 293 cells were washed with 10 ml Serum Free DMEM, followed by addition of 11 ml Serum Free DMEM. 2.0 ml of the transfection mixture was then added to the cells, followed by incubation for 5 hrs at 37° C./5% CO2. On day 3, cells were trypsinized and counted, followed by plating of 1×10^6 cells/well (12-well plates). Cells were permitted to adhere to the wells for 8 hrs, followed by one wash with 1×PBS. Thereafter, 0.5 μCi ^3 H-inositol in 1 ml inositol-free DMEM was added per well.
On day 4, the cells were washed with 1.5 ml PBS and then 0.9 ml of assay medium was added containing inositol-free/serum free media, 10 μM pargyline, 10 mM lithium chloride, for 5 min in 37° C./5% CO2 followed by 100 μl addition of candidate compound diluted in the same material. The cells were then incubated for 120 minutes at 37° C. […]

[2] = Bar catalepsy test in rats (extrapyramidal side effect analysis); type: in vivo, rat (male Sprague-Dawley); conditions: 0.8 mg/kg
[3] = target: T1, endogenous human 5-HT2C receptor (Homo sapiens, UniProt P28335); conditions: data not shown
T1 sequence (P28335 33-458): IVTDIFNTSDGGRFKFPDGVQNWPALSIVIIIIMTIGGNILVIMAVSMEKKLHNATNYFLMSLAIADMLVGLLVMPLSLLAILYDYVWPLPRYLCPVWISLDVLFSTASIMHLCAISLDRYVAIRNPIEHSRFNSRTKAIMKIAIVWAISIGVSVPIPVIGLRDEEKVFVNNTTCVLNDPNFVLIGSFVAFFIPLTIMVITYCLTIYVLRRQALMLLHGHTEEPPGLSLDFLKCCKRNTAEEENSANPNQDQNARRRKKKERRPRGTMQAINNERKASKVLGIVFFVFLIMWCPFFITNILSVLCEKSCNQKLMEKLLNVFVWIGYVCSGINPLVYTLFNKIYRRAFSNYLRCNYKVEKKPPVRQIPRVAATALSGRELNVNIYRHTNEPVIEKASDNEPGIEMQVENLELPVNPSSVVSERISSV

SMILES: Cn1cc(Br)c(-c2cccc(NC(=O)Nc3ccccc3F)c2)n1 [Compound 116144, {[3-(4-bromo-1-methylpyrazol-3-yl)phenyl]amino}-N-(2-fluorophenyl)carboxamide]
IP3 % of Control [1]: 12%

SMILES: Cn1cc(Br)c(-c2cccc(NC(=O)Nc3cccc(Cl)c3)c2)n1 [Compound 116105, {[3-(4-bromo-1-methylpyrazol-3-yl)phenyl]amino}-N-(3-chlorophenyl)carboxamide]
IP3 % of Control [1]: 11%

SMILES: CN(C)c1ccc(NC(=O)Nc2cccc(-c3nn(C)cc3Br)c2)cc1 [Compound 116122, N-[4-(dimethylamino)phenyl]{[3-(4-bromo-1-methylpyrazol-3-yl)phenyl]amino}carboxamide]
IP3 % of Control [1]: 9%

SMILES: Cn1cc(Br)c(-c2cccc(NC(=O)Nc3ccccc3C(N)=O)c2)n1 [Compound 116145, 2-({[3-(4-bromo-1-methylpyrazol-3-yl)phenyl]amino}carbonylamino)benzamide]
IP3 % of Control [1]: 31%

SMILES: Cn1cc(Br)c(-c2cccc(NC(=O)Nc3ccc(SC(F)(F)F)cc3)c2)n1 [Compound 116139, {[3-(4-bromo-1-methylpyrazol-3-yl)phenyl]amino}-N-[4-(trifluoromethylthio)phenyl]carboxamide]
IP3 % of Control [1]: 12%

SMILES: Cn1cc(Br)c(-c2cccc(NC(=O)Nc3ccc(C(F)(F)F)cc3)c2)n1 [Compound 116097, {[3-(4-bromo-1-methylpyrazol-3-yl)phenyl]amino}-N-[4-(trifluoromethyl)phenyl]carboxamide]
IP3 % of Control [1]: 11%

SMILES: CC(C)c1ccc(NC(=O)Nc2cccc(-c3nn(C)cc3Br)c2)cc1 [Compound 116110, {[3-(4-bromo-1-methylpyrazol-3-yl)phenyl]amino}-N-[4-(methylethyl)phenyl]carboxamide]
IP3 % of Control [1]: 7%

SMILES: Cc1ccccc1NC(=O)Nc1cccc(-c2nn(C)cc2Br)c1 [Compound 116092, {[3-(4-bromo-1-methylpyrazol-3-yl)phenyl]amino}-N-(2-methylphenyl)carboxamide]
IP3 % of Control [1]: 32%

SMILES: Cc1c(Cl)cc(NC(=O)Nc2cccc(-c3nn(C)cc3Br)c2)cc1Cl [Compound 116138, N-(3,5-dichloro-4-methylphenyl){[3-(4-bromo-1-methylpyrazol-3-yl)phenyl]amino}carboxamide]
IP3 % of Control [1]: 23%

SMILES: Cn1cc(Br)c(-c2cccc(NC(=O)Nc3ccccc3C#N)c2)n1 [Compound 116148, {[3-(4-bromo-1-methylpyrazol-3-yl)phenyl]amino}-N-(2-cyanophenyl)carboxamide]
IP3 % of Control [1]: 30%

SMILES: Cn1cc(Br)c(-c2cccc(NC(=O)Nc3ccc(OC(F)(F)F)cc3)c2)n1 [Compound 103487, N-[3-(4-bromo-1-methylpyrazol-3-yl)phenyl][{(4-trifluoromethoxy)phenyl}amino]carboxamide]
IC50 ([1]; AP-3, Example 10): 90 nM

SMILES: Cn1cc(Br)c(-c2cccc(NC(=O)Nc3ccc(C(C)(C)C)cc3)c2)n1 [Compound 116119, N-[4-(tert-butyl)phenyl]{[3-(4-bromo-1-methylpyrazol-3-yl)phenyl]amino}carboxamide]
IP3 % of Control [1]: 17%

SMILES: COc1ccc(NC(=O)Nc2cccc(-c3nn(C)cc3Br)c2)cc1 [Compound 116091, {[3-(4-bromo-1-methylpyrazol-3-yl)phenyl]amino}-N-(4-methoxyphenyl)carboxamide]
IP3 % of Control [1]: 12%

SMILES: Cn1cc(Br)c(-c2cccc(NC(=O)Nc3ccccc3[N+](=O)[O-])c2)n1 [Compound 116089, {[3-(4-bromo-1-methylpyrazol-3-yl)phenyl]amino}-N-(2-nitrophenyl)carboxamide]
IP3 % of Control [1]: 27%

SMILES: O=C(CCCN1CCC(O)(c2ccc(Cl)cc2)CC1)c1ccc(F)cc1 [haloperidol, reference compound]
induction of catalepsy [2]: induces catalepsy in rats
time spent on the bar [2]: significant increase in time spent on the bar

inhibition of serotonin-stimulated [35S]GTPγS binding ([3]; 30 μM mianserin): completely inhibited
effect on serotonin response of [35S]GTPγS binding [3]: inhibits this response
effect on basal constitutive binding of [35S]GTPγS ([3]; no agonist): partial inverse agonist
SMILES: CN1CCN2c3ccccc3Cc3ccccc3C2C1 (stereo not shown) [mianserin]

SMILES: Cc1cccc(NC(=O)Nc2cccc(-c3nn(C)cc3Br)c2)c1 [Compound 116112, {[3-(4-bromo-1-methylpyrazol-3-yl)phenyl]amino}-N-(3-methylphenyl)carboxamide]
IP3 % of Control [1]: 14%

SMILES: Cn1cc(Br)c(-c2cccc(NC(=O)Nc3ccc(C#N)cc3)c2)n1 [Compound 116147, {[3-(4-bromo-1-methylpyrazol-3-yl)phenyl]amino}-N-(4-cyanophenyl)carboxamide]
IP3 % of Control [1]: 12%

SMILES: COc1cccc(NC(=O)Nc2cccc(-c3nn(C)cc3Br)c2)c1 [Compound 116111, {[3-(4-bromo-1-methylpyrazol-3-yl)phenyl]amino}-N-(3-methoxyphenyl)carboxamide]
IP3 % of Control [1]: 7%

SMILES: Cn1cc(Br)c(-c2cccc(NC(=O)Nc3ccccc3Cl)c2)n1 [Compound 116108, {[3-(4-bromo-1-methylpyrazol-3-yl)phenyl]amino}-N-(2-chlorophenyl)carboxamide]
IP3 % of Control [1]: 6%

SMILES: Cn1cc(Br)c(-c2cccc(NC(=O)Nc3ccccc3OC(F)(F)F)c2)n1 [Compound 116087, {[3-(4-bromo-1-methylpyrazol-3-yl)phenyl]amino}-N-[2-(trifluoromethoxy)phenyl]carboxamide]
IP3 % of Control [1]: 11%

SMILES: CSc1ccc(NC(=O)Nc2cccc(-c3nn(C)cc3Br)c2)cc1 [Compound 116079, N-[3-(4-bromo-1-methylpyrazol-3-yl)phenyl][(4-methylthiophenyl)amino]carboxamide]
IP3 % of Control [1]: 16%
